Where two headings read alike, the source gives them in different places.
Assays:
[1] = system: cholesterol biosynthesis in L-cells of mice (929); test: Assay Method B: inhibition of 14C-cholesterol biosynthesis from 14C-acetic acid in L-cells of mice (929) (method of Kandutsch et al); format: cell-based; details: Mus musculus, mole concentration for 50% inhibition of cholesterol biosynthesis, read-out: ID50 (M) Assay Method B
Excerpt: The inhibitory activity of these compounds to cholesterol biosynthesis was further evaluated according to the method described in A. A. Kandutsch et al, Journal of Biological Chemistry, 248, 8408 (1973) by measuring the amount of ^14 C-cholesterol biosynthesized from ^14 C-acetic acid using L-cells of mice (929), and the activity was expressed by the mole concentration [I50 (M)] for 50% inhibition of cholesterol biosynthesis (Assay Method B).

[2] = molecular target: T1, 3-hydroxy-3-methylglutaryl coenzyme A reductase (Rattus norvegicus, UniProt P51639); test: Assay Method A: inhibitory activity to cholesterol biosynthesis in vitro, 50% inhibition of the enzyme activity (method of Knauss et al); format: biochemical
T1 construct: from tissue
T1 sequence (P51639 1-887): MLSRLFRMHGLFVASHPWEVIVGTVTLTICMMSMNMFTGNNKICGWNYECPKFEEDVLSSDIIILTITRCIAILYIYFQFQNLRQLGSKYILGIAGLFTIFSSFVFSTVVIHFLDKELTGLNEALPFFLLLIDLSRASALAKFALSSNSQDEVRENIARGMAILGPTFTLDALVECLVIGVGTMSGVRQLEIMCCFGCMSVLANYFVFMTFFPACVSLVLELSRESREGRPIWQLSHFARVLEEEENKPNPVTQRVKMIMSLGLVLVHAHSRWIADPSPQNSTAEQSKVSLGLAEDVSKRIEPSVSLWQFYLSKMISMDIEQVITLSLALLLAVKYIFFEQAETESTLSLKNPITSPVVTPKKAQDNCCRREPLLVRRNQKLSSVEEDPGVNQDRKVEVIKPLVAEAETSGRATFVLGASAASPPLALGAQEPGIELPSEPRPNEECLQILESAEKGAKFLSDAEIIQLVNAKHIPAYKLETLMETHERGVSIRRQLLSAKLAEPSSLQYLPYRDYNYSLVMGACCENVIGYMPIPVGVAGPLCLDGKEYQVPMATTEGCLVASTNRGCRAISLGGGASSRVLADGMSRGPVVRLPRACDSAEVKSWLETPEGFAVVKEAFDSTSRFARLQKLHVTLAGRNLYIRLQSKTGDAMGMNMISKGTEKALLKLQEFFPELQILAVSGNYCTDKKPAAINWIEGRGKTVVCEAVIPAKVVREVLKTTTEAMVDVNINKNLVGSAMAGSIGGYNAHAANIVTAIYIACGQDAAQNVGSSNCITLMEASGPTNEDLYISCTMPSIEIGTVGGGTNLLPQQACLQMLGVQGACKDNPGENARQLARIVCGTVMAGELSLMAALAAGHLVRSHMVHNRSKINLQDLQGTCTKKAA

[3] = Assay Method A, in vitro, mole concentration for 50% inhibition of the enzyme activity, read-out: ID50 (M) Assay Method A

Structure (SMILES)	IC50 [2, 3]	IC50 [1]	IC50 [2]
CC1(O)CC(=O)OC(c2ccc(OCc3ccccc3)cc2)C1 (stereo not drawn) [A, 3-Hydroxy-3-methyl-5-(p-benzyloxyphenyl)-5-pentanolide]	6.2e-05 M	0.00013 M	
CC1(O)CC(=O)OC(CCc2ccccc2)C1 (stereo not drawn) [C, 3-Hydroxy-3-methyl-7-phenyl-5-heptanolide]	0.00036 M	4.2e-05 M	
CCOC(=O)C(C)(C)Oc1ccc(Cl)cc1 [Clofibrate, reference compound]		8e-05 M	0.001 M
CC1(O)CC(=O)OC(CCc2ccccc2)C1Br (stereo not drawn) [Compound D, 3-Hydroxy-3-methyl-4-bromo-7-phenyl-5-heptanolide]	0.0001 M		
CC1C(CCc2ccccc2)OC(=O)CC1(C)O (stereo not drawn) [E, 3-Hydroxy-3,4-dimethyl-7-phenyl-5-heptanolide]	6.7e-05 M		
CC1(O)CC(=O)OC(CCc2ccc(O)cc2)C1 (stereo not drawn) [F, 3-Hydroxy-3-methyl-7-(p-hydroxyphenyl)-5-heptanolide]	6.6e-05 M		
CC(=O)OC1(C)CC(=O)OC(CCc2ccc(OCc3ccccc3)cc2)C1 (stereo not drawn) [G, 3-Acetoxy-3-methyl-7-(p-benzyloxyphenyl)-5-heptanolide]	4.5e-05 M	3.1e-05 M	
CC1(O)CC(=O)OC(CCc2ccc(OCc3ccc(F)cc3)cc2)C1 (stereo not drawn) [L, 3-Hydroxy-3-methyl-7-[p-(p-fluorobenzyloxy)phenyl]-5-heptanolide]		5e-05 M	
CC1(O)CC(=O)OC(CCc2ccc(OCc3ccc(Cl)cc3)cc2)C1 (stereo not drawn) [M, 3-Hydroxy-3-methyl-7-[p-(p-chlorobenzyloxy)phenyl]-5-heptanolide]		1.9e-05 M	
CC1(O)CC(=O)OC(CCc2ccc(Cl)cc2)C1 (stereo not drawn) [N, 3-Hydroxy-3-methyl-7-(p-chlorophenyl)-5-heptanolide]	4.5e-05 M	3e-05 M	
COc1ccc(CCC2CC(C)(O)CC(=O)O2)cc1 (stereo not drawn) [P, 3-Hydroxy-3-methyl-7-(p-methoxyphenyl)-5-heptanolide]	6.3e-05 M		
Cc1cc(OCc2ccccc2)cc(C)c1CCC1OC(=O)CC(C)(O)C1Br (stereo not drawn) [V, 3-Hydroxy-3-methyl-4-bromo-7-(p-benzyloxy-o,o'-dimethylphenyl)-5-heptanolide]		1e-05 M	
COc1cc(CCC2CC(C)(O)CC(=O)O2)ccc1OC(C)=O (stereo not drawn) [W, 3-Hydroxy-3-methyl-7-(p-acetoxy-m-methoxyphenyl)-5-heptanolide]	4.5e-05 M	8.3e-05 M	
CC1(O)CC(=O)OC(CCCc2ccc(OCc3ccccc3)cc2)C1 (stereo not drawn) [Y, 3-Hydroxy-3-methyl-8-(p-benzyloxyphenyl)-5-octanolide]	4e-06 M	7e-06 M	

Continued by falling IC50 [2, 3], values first:

IC50 [2, 3]	Structure (SMILES)	IC50 [1]	IC50 [2]
0.0001 M	CC1(O)CC(=O)OC(c2ccc(-c3ccccc3)cc2)C1 (stereo not drawn) [B, 3-Hydroxy-3-methyl-5-(4-biphenylyl)-5-pentanolide]	0.00016 M	
7.1e-05 M	CC1(O)CC(=O)OC(C=Cc2cccc(OCc3ccccc3)c2)C1 (stereo not drawn) [S, 3-Hydroxy-3-methyl-7-(m-benzyloxyphenyl)-6-hepten-5-olide]	0.00012 M	
6.4e-05 M	CC1C(C=Cc2ccccc2)OC(=O)CC1(C)O (stereo not drawn) [Q, 3-Hydroxy-3,4-dimethyl-7-phenyl-6-hepten-5-olide]		
6.3e-05 M	CC1(O)CC(=O)OC(CCc2ccc(Cl)cc2)C1Br (stereo not drawn) [O, 3-Hydroxy-3-methyl-4-bromo-7-(p-chlorophenyl)-5-heptanolide]		
4.7e-05 M	CC1(O)CC(=O)OC(CCc2ccccc2OCc2ccccc2)C1Br (stereo not drawn) [K, 3-Hydroxy-3-methyl-4-bromo-7-(o-benzyloxyphenyl)-5-heptanolide]	8.8e-05 M	
3.3e-05 M	CC1(O)CC(=O)OC(CCc2ccccc2OCc2ccccc2)C1 (stereo not drawn) [I, 3-Hydroxy-3-methyl-7-(o-benzyloxyphenyl)-5-heptanolide]	5e-05 M	
2.1e-05 M	COc1cc(CCC2CC(C)(O)CC(=O)O2)ccc1OCc1ccccc1 (stereo not drawn) [T, 3-Hydroxy-3-methyl-7-(p-benzyloxy-m-methoxyphenyl)-5-heptanolide]	1.1e-05 M	
8.6e-06 M	CC1(O)CC(=O)OC(C=Cc2ccc(OCc3ccccc3)cc2)C1 (stereo not drawn) [R, 3-Hydroxy-3-methyl-7-(p-benzyloxyphenyl)-6-hepten-5-olide]	1.3e-05 M	
6.7e-06 M	CC1(O)CC(=O)OC(CCCc2ccc(OCc3ccccc3)cc2)C1Br (stereo not drawn) [Z, 3-Hydroxy-3-methyl-4-bromo-8-(p-benzyloxyphenyl)-5-octanolide]	1.2e-05 M	
5.6e-06 M	CC1(O)CC(=O)OC(CCc2ccc(OCc3ccccc3)cc2)C1Br (stereo not drawn) [J, 3-Hydroxy-3-methyl-4-bromo-7-(p-benzyloxyphenyl)-5-heptanolide]	3e-05 M	
4.2e-06 M	CC1(O)CC(=O)OC(CCc2ccc(OCc3ccccc3)cc2)C1 (stereo not drawn) [H, 3-Hydroxy-3-methyl-7-(p-benzyloxyphenyl)-5-heptanolide]	6e-06 M	
3.9e-06 M	Cc1cc(OC(=O)c2ccccc2)cc(C)c1CCC1CC(C)(O)CC(=O)O1 (stereo not drawn) [X, 3-Hydroxy-3-methyl-7-(p-benzoyloxy-o,o'-dimethylphenyl)-5-heptanolide]	6.5e-06 M	
3.8e-06 M	Cc1cc(OCc2ccccc2)cc(C)c1CCC1CC(C)(O)CC(=O)O1 (stereo not drawn) [U, 3-Hydroxy-3-methyl-7-(p-benzyloxy-o,o'-dimethylphenyl)-5-heptanolide]	5.4e-06 M	

Reference: patent publication US4262013A, “Mevalonolactone derivatives and process for the preparation thereof” (Sankyo Company Limited, priority 1977, dated 1981)
